Laboratory results reported in the NIST ThermoML archive (doi:10.1016/j.jct.2016.06.001).
± gives the expanded uncertainty stated by the source.

Conditions: Liquid, Frequency=8 MHz, Pulse-echo method

OCCO [1,2-ethanediol]
Conditions	speed of sound [m/s]
273.15 K, 99 kPa	1713.8 ± 0.82
273.15 K, 5204 kPa	1727.5 ± 0.82
273.15 K, 10344 kPa	1740.9 ± 0.83
273.15 K, 15152 kPa	1753.2 ± 0.83
273.15 K, 20194 kPa	1765.9 ± 0.84
273.15 K, 25132 kPa	1778.1 ± 0.84
273.15 K, 30171 kPa	1789.9 ± 0.85
293.15 K, 99 kPa	1665.8 ± 0.8
293.15 K, 5051 kPa	1679.8 ± 0.81
293.15 K, 10070 kPa	1693.5 ± 0.81
293.15 K, 15176 kPa	1707.2 ± 0.82
293.15 K, 20158 kPa	1720.2 ± 0.82
293.15 K, 25108 kPa	1732.9 ± 0.83
293.15 K, 30024 kPa	1745.3 ± 0.83
313.15 K, 100 kPa	1618.5 ± 0.78
313.15 K, 5031 kPa	1633.1 ± 0.79
313.15 K, 10028 kPa	1647.3 ± 0.79
313.15 K, 15117 kPa	1661.7 ± 0.8
313.15 K, 20088 kPa	1675.3 ± 0.81
313.15 K, 25102 kPa	1688.7 ± 0.81
313.15 K, 29983 kPa	1701.6 ± 0.81
333.15 K, 99 kPa	1570.7 ± 0.76
333.15 K, 5054 kPa	1586.1 ± 0.77
333.15 K, 10048 kPa	1601.1 ± 0.78
333.15 K, 15067 kPa	1615.8 ± 0.78
333.15 K, 20106 kPa	1630.3 ± 0.79
333.15 K, 25103 kPa	1644.3 ± 0.79
333.15 K, 29958 kPa	1657.7 ± 0.8
353.15 K, 100 kPa	1521.8 ± 0.74
353.15 K, 5079 kPa	1538.1 ± 0.75
353.15 K, 10048 kPa	1553.8 ± 0.76
353.15 K, 15054 kPa	1569.3 ± 0.76
353.15 K, 20071 kPa	1584.4 ± 0.77
353.15 K, 25078 kPa	1599.1 ± 0.78
353.15 K, 29995 kPa	1613.3 ± 0.78

CC(C)CO [2-methyl-1-propanol]
Conditions	speed of sound [m/s]
253.15 K, 102 kPa	1347.3 ± 0.68
253.15 K, 5144 kPa	1373.7 ± 0.69
253.15 K, 10257 kPa	1399.1 ± 0.7
253.15 K, 15122 kPa	1422.2 ± 0.71
253.15 K, 20400 kPa	1446.6 ± 0.72
253.15 K, 25315 kPa	1468 ± 0.73
253.15 K, 30039 kPa	1488.7 ± 0.73
273.15 K, 105 kPa	1274.2 ± 0.65
273.15 K, 5154 kPa	1302.8 ± 0.66
273.15 K, 10139 kPa	1329.4 ± 0.67
273.15 K, 15072 kPa	1354.7 ± 0.68
273.15 K, 20215 kPa	1380 ± 0.69
273.15 K, 25138 kPa	1403.2 ± 0.7
273.15 K, 30242 kPa	1426.4 ± 0.71
293.15 K, 102 kPa	1204.9 ± 0.62
293.15 K, 5004 kPa	1234.9 ± 0.64
293.15 K, 10097 kPa	1264.2 ± 0.65
293.15 K, 15140 kPa	1291.7 ± 0.66
293.15 K, 20220 kPa	1318.2 ± 0.67
293.15 K, 25063 kPa	1342.5 ± 0.68
293.15 K, 30100 kPa	1366.7 ± 0.69
313.15 K, 104 kPa	1138.1 ± 0.6
313.15 K, 5135 kPa	1171.1 ± 0.61
313.15 K, 10050 kPa	1201.4 ± 0.62
313.15 K, 15190 kPa	1231.5 ± 0.64
313.15 K, 20126 kPa	1259 ± 0.65
313.15 K, 25019 kPa	1285.1 ± 0.66
313.15 K, 30259 kPa	1311.7 ± 0.67
333.15 K, 100 kPa	1071.8 ± 0.57
333.15 K, 5187 kPa	1108 ± 0.59
333.15 K, 10181 kPa	1141.3 ± 0.6
333.15 K, 15331 kPa	1173.6 ± 0.61
333.15 K, 20135 kPa	1202 ± 0.62
333.15 K, 25174 kPa	1230.4 ± 0.64
333.15 K, 30144 kPa	1257 ± 0.65
353.15 K, 104 kPa	1004.1 ± 0.55
353.15 K, 5055 kPa	1042.8 ± 0.56
353.15 K, 10093 kPa	1079.4 ± 0.58
353.15 K, 15238 kPa	1114.2 ± 0.59
353.15 K, 20157 kPa	1145.4 ± 0.6
353.15 K, 25111 kPa	1175.1 ± 0.61
353.15 K, 30108 kPa	1203.6 ± 0.62

OCCCO [propan-1,3-diol]
Conditions	speed of sound [m/s]
293.15 K, 100 kPa	1635.2 ± 1.4
293.15 K, 5030 kPa	1650 ± 1.4
293.15 K, 10062 kPa	1664.6 ± 1.4
293.15 K, 15066 kPa	1678.9 ± 1.4
293.15 K, 20096 kPa	1692.9 ± 1.4
293.15 K, 24997 kPa	1706.3 ± 1.4
293.15 K, 30029 kPa	1719.9 ± 1.4
313.15 K, 99 kPa	1589.5 ± 1.4
313.15 K, 5048 kPa	1605.1 ± 1.4
313.15 K, 10031 kPa	1620.3 ± 1.4
313.15 K, 15138 kPa	1635.4 ± 1.4
313.15 K, 20064 kPa	1649.8 ± 1.4
313.15 K, 25191 kPa	1664.4 ± 1.4
313.15 K, 30167 kPa	1678.3 ± 1.4
333.15 K, 100 kPa	1544.1 ± 1.3
333.15 K, 5058 kPa	1560.3 ± 1.3
333.15 K, 10054 kPa	1576.2 ± 1.3
333.15 K, 15024 kPa	1591.7 ± 1.4
333.15 K, 20153 kPa	1607.2 ± 1.4
333.15 K, 25135 kPa	1622 ± 1.4
333.15 K, 30136 kPa	1636.6 ± 1.4
353.15 K, 101 kPa	1497.6 ± 1.3
353.15 K, 5038 kPa	1514.6 ± 1.3
353.15 K, 10023 kPa	1531.3 ± 1.3
353.15 K, 15089 kPa	1547.8 ± 1.3
353.15 K, 20158 kPa	1563.9 ± 1.3
353.15 K, 25109 kPa	1579.3 ± 1.3
353.15 K, 30076 kPa	1594.4 ± 1.4
